According to patent publication US9127085B2, “Compositions of humanized notch fusion proteins and methods of treatment” (THE TRUSTEES OF COLUMBIA UNIVERSITY IN THE CITY OF NEW YORK, priority 2007, dated 2015):
Entries after “also recorded” stand apart in the source; their conditions may differ.

Columns and labels:
[1] = system: Ad-Notch4 transduced HUVEC; experiment: Endothelial co-culture morphogenesis assay (Notch4-induced extensions on fibrin gel); format: cell-based, human; conditions: 200 nM compound E vs vehicle
Protocol: HUVEC morphogenesis was assessed as described (11), modified by adding co-culturing of Ad-Notch4 transduced HUVEC with Notch1 decoy- or Fc-HUVEC transfectants. Ad-GFP at 10 m.o.i. was co-transduced in HUVECs with Ad-LacZ or Ad-Notch4 at 30 m.o.i and 48 h later seeded on fibrin gels (24-well plates, 1.5×10^4 cells/well). Stable HUVEC-mock (HUVEC-X), HUVEC-Fc, or HUVEC-N1ECDFc transfectants were seeded at 1.35×10^5 cells/well, and vehicle or 200 nM compound E added 3 h later. Seven days later, HUVEC morphogenesis was calculated as the number of GFP-positive cells with processes compared to total GFP-positive cells/field.

[2] = system: C2C12 cells; experiment: C2C12 myoblast differentiation; format: cell-based; conditions: C2C12 transduced with Foxo1-ADA
Protocol: FIGS. 38A-38C These Figures show the quantitative analysis of C2C12 differentiation. […] Results from differentiation experiments were analyzed by scoring the number of Myosin-immunostained cells as percentage of all DAPI-positive cells. […] We carried out reporter gene assays using the canonical Foxo1-responsive Igfbp1 promoter (left panel) and the Hes1 promoter (right panel) in cells co-transfected with Foxo1-ADA or DBD-Foxo1ADA. […] An asterisk indicates P<0.01 by ANOVA.
C2C12 cells were differentiated as described (3, 4). Foxo1-ADA, Notch1-IC, Jagged1, Csl and Notch decoy adenoviral and mammalian expression vectors have been described (36, 51). We generated retroviruses expressing Foxo1-ADA and Notch1-IC using the pQCXIH vector. To generate Notch decoy (pAdlox Notch1ECD-Fc), the extracellular domain of Notch1(bp 241-4229, GenBank accession# X57405) was fused in frame with human IgG Fc tag and cloned into pAdlox. Retroviral supernatant was produced from cells transiently co-transfected with pVSV-G vector and designated pQCXIH vector into GP2-293 cells (BD Bioscience). To generate the DNA binding-deficient Foxo1, we replaced N208 and H212 with alanine and arginine, respectively, using QuikChange Mutagenesis Kit (Stratagene). The mutations were then cloned in the backbone of the Foxo1-ADA mutant. […]

[3] = system: Ad-N1IC-transduced HUVEC; experiment: Notch (Ad-N1IC)-induced HUVEC budding; format: cell-based, human
Protocol: HUVEC were transduced with either Ad-LacZ or Ad-N1IC at 40 MOI. FIGS. 23A-23C show the effect of inhibitors for receptor tyrosine kinases on Notch-induced HUVEC budding. FIG. 23A is a photograph of budding of Ad-N1IC-transduced HUVEC treated with PD166866, ZD1893 at 1 μM and SU5416 at 0.5 μM. […] FIGS. 23D-E show induction of Flt-1 expression in Ad-N1IC-transduced HUVEC. […] FIGS. 23F-G show promotion of Notch-induced HUVEC budding with PlGF stimulation. Ad-N1IC-transduced HUVEC were cultured on collagen gel with SFM, instead of complete medium, in the absence or presence of 50 ng/ml PlGF. […] FIGS. 23H-I show the effect of Flt-1 siRNA transfection on Flt1 expression. Ad-N1IC-transduced HUVEC were transfected with 200 pmol of either control (CT) or Flt-1 siRNA. […] Ad-N1IC-transduced HUVEC were transfected with either 100 or 200 pmol of siRNA and cultured on collagen gel for 2 days.
Either Ad-LacZ or Ad-N1IC-HUVEC at a MOI of 40 pfu/cell were cultured on collagen gel for 5 days in the absence or presence of GM6001 at 50 μm.
For making collagen gels, an ice-cold solution of porcine type I collagen (Nitta gelatin, Tokyo, Japan) was mixed with 10×RPMI1640 medium and neutralization buffer at the ratio of 8:1:1. 400 μl aliquots of collagen gel were then added to 24-well plates and allowed to gel for at least 1 hour at 37° C. Following adenoviral infection (above), HUVEC was harvested and plated at 1.3×10^5 cells per well onto the top of the collagen gel in 24-well plates in 0.8 ml of EGM2 medium. HUVEC became nearly confluent 48 hours after plating. After seeding, medium was changed every 2 days for 1 week. Sprouting was observed and photographs taken after 8 days with an Olympus digital camera mounted to a microscope. For quantification of the number of sprouts, 5 fields per each well were randomly selected and sprouting was counted under microscopy in a blind manner by two investigators.

[4] = system: Jagged1 and Dll1 expression in Mm5MT-FGF4 cells; experiment: Quantitative RT-PCR of Notch ligands in Mm5MT-FGF4 transfectants; format: cell-based, mouse; conditions: 1 μm PD166866, 7 days
Protocol: Mm5MT transfectants were cultured 7 days with vehicle or 1 μm PD166866 (inhibitor of FGF receptor-kinase), total RNA isolated (RNeasy mini-kit, Qiagen, Valencia, Calif.), and first-strand cDNA synthesized (SuperScript™ First-Strand Synthesis System, Invitrogen). Quantitative RT-PCR for β-actin, FGF4, Jagged1, Dll1, and Dll4 (SYBER Green PCR Master Mix, 7300 Real Time PCR; Applied Biosystems, Foster City, Calif.) was performed in triplicate and values normalized for β-actin. Values are shown for fold induction compared to controls (primer sequences available on request).

[5] = system: retinal neovascularization; conditions: intravitreal injection; hypoxic mouse model; cited from earlier work
[6] = system: CBF1 promoter activity in Ad-VEGF-infected HUVEC; experiment: VEGF-induced Notch signaling, CBF1 (CSL) promoter reporter in HUVEC; format: cell-based, human; conditions: SU5416 treatment of Ad-VEGF-transduced HUVEC
Protocol: To determine VEGF-induced Notch signaling, HUVEC which were infected with adenovirus were used. HUVEC plated 1-day prior in 6 well plates at 8.0×10^5 were infected with either Ad-LacZ as control or Ad-VEGF at indicated m.o.i. in the presence or absence of Ad-N1ECD/Fc. Two days after infection, infected HUVEC were re-seeded into 24-well plate at 1.5×10^5 cell in triplicate and cultured for 24 hours, and then transfected with 12.5 ng pRL-SV40 (Promega) and 137.5 ng pGA981-6 using Effectene transfection reagent (Qiagen). Cells were harvested either 1 or 2 days post-transfection and luciferase activity was determined by using the Dual-Luciferase® Reporter Assay System (Promega).
One can measure Notch signaling function by measuring transcriptional activity of CBF1 promoter, which is activated by binding of Notch-IC to CBF1. We measured CBF1 promoter activity in HUVEC which was infected with adenovirus encoding VEGF-165 at different MOI (FIG. 6). Induction of CBF1 promoter was clearly detected in Ad-VEGF-infected HUVEC, compared to Ad-LacZ-infected cells in the MOI dependent manner. […] Thus VEGF induced Notch signaling activity.

[7] = system: VEGF induced retinal microvascular permeability and vasoconstriction; conditions: subcutaneous injection; diabetic rat model; cited from earlier work
[8] = Ad-N1IC at 40 MOI, receptor tyrosine kinase inhibitors at 1 μM

With C[C@H](NC(=O)Cc1cc(F)cc(F)c1)C(=O)N[C@H]1N=C(c2ccccc2)c2ccccc2N(C)C1=O [Compound E] the “Notch4-induced HUVEC extensions” value ([1]; p<0.0001) was “clearly inhibited extensions”, the “Notch4-induced HUVEC extensions” value ([1]; p<0.0001, listed as compound E) was “blocks Notch4-induced extensions” and the “rescue of Foxo1-ADA inhibition of myoblast differentiation” value [2] was “also rescued Foxo1-ADA inhibition of myoblast differentiation”.

In the case of CNC(=O)[C@H](Cc1c[nH]c2ccccc12)NC(=O)[C@@H](CC(=O)NO)CC(C)C [GM6001], the “budding of Ad-N1IC-HUVEC” value ([3]; GM6001 at 50 μm, 5 days, collagen and fibrin gel) is reported as “clearly decreased budding of Ad-N1IC-HUVEC”.

For COc1cc(OC)cc(-c2cc3cnc(N)nc3nc2NC(=O)NC(C)(C)C)c1 [PD166866], the “budding of Ad-N1IC-HUVEC” value [3, 8] was “Neither PD166866 or ZD1893 affected budding” and the “FGF4-induced Jagged1 and Dll1 expression” value [4] was “suppressed induction of both Jagged1 and Dll1; also recorded: reduction of Notch ligand expression”.

For Clc1ccc(Nc2nnc(Cc3ccncc3)c3ccccc23)cc1 [PTK/ZK], the retinal neovascularization [5] is given as “reduces retinal neovascularization”.

In the case of Cc1cc(C)c(/C=C2\C(=O)Nc3ccccc32)[nH]1 [SU5416], the “VEGF-induced CSL-luciferase reporter activity” value [6] is reported as “decreased VEGF-induced CSL-luciferase reporter activity”, the “budding of Ad-N1IC-HUVEC” value [3, 8] is reported as “clearly inhibited” and the “viability of Ad-N1IC-HUVEC (dose-dependency of SU5416)” value ([3]; lower concentrations of SU5416) is reported as “less reduction of viability at lower concentrations”. The “VEGF induced retinal microvascular permeability and vasoconstriction” value [7] was “suppresses VEGF induced retinal microvascular permeability and vasoconstriction”.

B1: PlGF: a selective ligand for Flt1 (protein, UniProt P49763 19-221, looked up)
Placenta growth factor: LPAVPPQQWALSAGNGSSEVEVVPFQEVWGRSYCRALERLVDVVSEYPSEVEHMFSPSCVSLLRCTGCCGDENLHCVPVETANVTMQLLKIRSGDRPSYVELTFSQHVRCECRHSPGRQSPDMPGDFRADAPSFLPPRRSLPMLFRMEWGCALTGSQSAVWPSSPVPEEIPRMHPGRNGKKQQRKPLREKMKPERCGDAVPRR
In the case of B1, the “increase in HUVEC buds containing multiple filopodia” value ([3]; 50 ng/ml PlGF, SFM) is reported as 250% and the “increase in number of Ad-N1IC-HUVEC buds” value ([3]; 50 ng/ml PlGF, SFM, compared to the absence of PlGF) is reported as 150%.
